This note sets out measurements from PubChem BioAssay (NCI).

Molecules are shown by their SMILES.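 A five-concentration, 48-hour dose response in 96-well plates underlies each endpoint, interpolated linearly between surrounding concentrations. GI50 is the concentration that inhibits growth by half. TGI is the concentration that stops growth completely.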

By GI50 is commonly meant the concentration giving 50% growth inhibition. The TGI is the concentration at which net growth stops. Higher therefore signals lower sensitivity of the cells.

Common to all, as to assay: DTP human tumour cell line panel, 48 h
Test [1] concerns HOP-92 NSCLC.
In test [2] the test system is SW-620 colon.
Test [3] relates to RPMI-8226 leukemia.
Test [4] deals with U251 CNS.
Test [5] has as its system SK-MEL-2 melanoma.
In test [6] the test system is K-562 leukemia.
In test [7] the test system is HL-60(TB) leukemia.
The test system of test [8] is HT29 colon.
In test [9] the test system is ACHN renal.
Test [10] has as its system HCT-116 colon.

On to `C=C1C(=O)O[C@H]2[C@H]1CC/C(COC(=O)CCCCC(=O)OC/C1=C/CC[C@@]3(C)O[C@H]3[C@H]3OC(=O)C(=C)[C@@H]3CC1)=C\CC[C@@]1(C)O[C@@H]21`, for which the GI50 in test [1] is 1.64 µM; in test [2], 1.17 µM; in test [3] it was 1.81 µM; in [4], 2.58 µM; in test [5], 3.39 µM; in test [6] it was 1.87 µM. Also, in test [7], the GI50 is 0.722 µM. Also, the TGI is 4.56 µM in test [1]; 2.78 µM in test [2]; 5.59 µM in test [3]; 8.91 µM in [4]; 75.6 µM in [5]; over 100 µM in test [6]. The TGI in [7] worked out at 3.94 µM.
For `CC(=O)N1N=C2/C(=C/c3ccccc3)CC(C)CC2C1c1ccccc1` (stereo not drawn), the GI50 in test [1] is 13.9 µM; in test [2], 15.2 µM; in test [8], 12.9 µM; in test [3], 9.54 µM; in [9], 13 µM; in [4], 11.7 µM. Besides, the GI50 in test [5] was 18.7 µM; in test [6] it was 4.29 µM; in test [7] it was 8.82 µM. The TGI in test [1] came out at 31.2 µM; in test [2] it was 33.2 µM; in test [8], 29.9 µM; in test [3], 76.1 µM; in test [9], 26.8 µM; in [4], 25.4 µM. Moreover, the TGI in test [5] is 46.3 µM; in test [6] it was 20.7 µM; in [7], 32.1 µM.
On to `CCOC(C)C(/C=N/NC(N)=S)=NNC(N)=S` (stereo not drawn), for which the TGI in test [1] is over 100 µM; in test [2] it was over 100 µM; in test [3], over 100 µM; in [9], over 100 µM; in test [4], over 100 µM; in test [5] it was over 85.3 µM. The TGI in test [6] and in test [7] was over 100 µM throughout.
For `CCOc1c(Br)cc(C2C(C(=O)OC)=CN(C)C=C2C(=O)OC)cc1OC`, the GI50 in test [1] was 33.4 µM; in test [2], 38.6 µM; in [8], 45.6 µM; in [3], 45.5 µM; in [10] it was 48.3 µM; in test [9], 77.6 µM. Also, the GI50 in [4] was 42.6 µM; in [6], 50.6 µM; in test [7], 37.8 µM. Further, the TGI in test [1], in test [2], in [8], in [3], in test [10] and in [9] was over 100 µM throughout. Moreover, the TGI in test [4], in test [6] and in test [7] was over 100 µM throughout.
`C[C@@H]1CN(C(=O)c2ccc(NC(=O)c3cc(O[C@H](C)c4c(Cl)ccc(F)c4Cl)c(N)nn3)cc2)C[C@H](C)N1`: the GI50 in [1] is 0.722 µM; in test [2], 2.29 µM; in [8] it was 1.19 µM; in test [3] it was 2.37 µM; in test [10], 1.46 µM; in test [4], 3.4 µM. Further, the GI50 in test [5] is 5.57 µM; in [6] it was 0.37 µM; in test [7], 1.21 µM. Further, the TGI in [1] was 5.18 µM; in test [2], 12.6 µM; in test [8], 3.46 µM; in test [3] it was 8.17 µM; in test [10], 10.7 µM; in test [4], 12.9 µM. In addition, the concentration for total growth inhibition (TGI) in test [5] was determined as 19.6 µM; in test [6] it was 10.2 µM; in test [7] it was 3.3 µM.
With `CCN(CC)CCCC(C)Nc1cnc(C(=O)Nc2ccc(Cl)c3cccnc23)cn1` (stereo not drawn), the GI50 in test [1] is 1.18 µM; in test [2], 2.09 µM; in [8], 1.33 µM; in test [3], 1.74 µM; in test [9], 1.73 µM; in test [4], 1.93 µM. Besides, the GI50 was 1.95 µM in [5], 1.05 µM in [6] and 1.77 µM in test [7]. The concentration for total growth inhibition (TGI) in test [1] was 2.82 µM; in test [2] it was 4.74 µM; in test [8], 3.26 µM; in test [3], 3.92 µM; in test [9], 3.31 µM; in [4], 3.83 µM. Further, the results for the TGI in [5], in test [6] and in test [7] were 4.34 µM, 3.71 µM and 3.54 µM, respectively.
Regarding `CCOC12OC3=C(CC1CC1=C(CCC1=O)O2)C(=O)CC3` (stereo not drawn), the concentration for total growth inhibition (TGI) in test [1], in [2], in test [8], in test [3], in test [10] and in test [4] was over 100 µM in each case. In addition, the TGI in test [5], in [6] and in [7] was over 100 µM throughout.
Take `Cn1ccnc1C(=O)/C=C/c1ccc(C(=O)Nc2ccc(Cl)cc2)cc1`: the GI50 in test [1] is 1.14 µM; in test [8], 0.946 µM; in test [3] it was 0.431 µM; in test [10], 0.514 µM; in [9], 0.62 µM; in test [5], 7.68 µM. Moreover, the GI50 in test [6] is 0.646 µM; in test [7], 0.669 µM. Moreover, the concentration for total growth inhibition (TGI) is 27 µM in test [1]; over 33.3 µM in [8]; 1.35 µM in test [3]; 1.08 µM in test [10]; 1.24 µM in [9]; over 33.3 µM in test [5]. The results for the TGI in test [6] and in test [7] were over 33.3 µM and 1.97 µM, respectively.
For the compound `CC(C)=CCC[C@H](C)[C@@H]1CC[C@]2(C)C3CC[C@]4(OC4(C)C)C(CCCO)[C@]3(C)CC[C@@]12C` (stereo partly drawn), the GI50 in [1] was 14.5 µM; in test [2] it was 28 µM; in [8] it was 34 µM; in test [3] it was 33.6 µM; in [10], 29 µM; in [9] it was 13.7 µM. The GI50 in [4] was 19.7 µM; in test [6] it was 25.3 µM; in test [7], 20.7 µM. The TGI in test [1] is 34.7 µM; in test [2], 64.8 µM; in [8] it was over 100 µM; in test [3], over 100 µM; in [10], over 100 µM; in test [9] it was 32.4 µM. Also, the TGI in [4] was 66.1 µM; in [6] it was 73.3 µM; in [7] it was 45.3 µM.
As to `COc1cc2c3c(n(CCCCOC(=O)C(F)(F)F)c(=O)c2cc1OC)-c1cc2c(cc1C3=O)OCO2`, the GI50 was over 82.9 µM in [1]; over 100 µM in test [2]; over 100 µM in [8]; over 20.4 µM in [3]; over 48.3 µM in test [9]; over 38.8 µM in test [4]. In addition, the GI50 is over 100 µM in test [5], over 50.4 µM in test [6] and over 100 µM in test [7]. For the same compound, the TGI in test [1], in test [2], in [8], in test [3], in test [9] and in test [4] was over 100 µM in each case. Also, the TGI in test [5], in test [6] and in test [7] was over 100 µM in each case.
For `O=C(CN1CCN(c2ncnc3ccccc23)CC1)Nc1ccc(Cl)cc1C(=O)c1ccccc1Cl`, the GI50 in test [1] was 0.542 µM; in test [2], 0.662 µM; in test [8], 0.394 µM; in [3] it was 0.561 µM; in [10], 0.417 µM; in test [9], 1.67 µM. Also, the figures for the GI50 in test [5], in test [6] and in test [7] were 0.723 µM, 0.838 µM and 0.415 µM, respectively. For the same compound, the TGI is 15.4 µM in test [1]; 7.54 µM in [2]; 9.4 µM in [8]; over 22.2 µM in [3]; 11 µM in test [10]; 18.7 µM in test [9]. Also, the TGI in [5] was 2.67 µM; in [6] it was over 52.4 µM.
For the compound `Cc1nn(-c2nc3ccccc3s2)c(C)c1Oc1ccccc1O`, the GI50 in [1] was 0.162 µM; in test [2], 4.79 µM; in test [8], 4.95 µM; in [3] it was 8.13 µM; in test [10], 2.03 µM; in [9], 10.1 µM. Also, the values for the GI50 in test [4], in [6] and in test [7] were 1.39 µM, 1.94 µM and 4.02 µM, respectively. Also, the concentration for total growth inhibition (TGI) in [1] stood at 16.6 µM; in [2], 17.6 µM; in test [8] it was 20.3 µM; in [3] it was 34.8 µM; in [10], 15.5 µM; in [9], 22.8 µM. Further, the TGI in test [4] was 16.3 µM; in test [6], 19.4 µM; in test [7], 18.1 µM.
With `Cc1ccc(NC(=O)C(=O)C2C(=O)N(c3ccccc3)N=C2N)cc1C` (stereo not drawn), the TGI in test [1], in [2], in [8], in test [3], in test [10] and in [9] was over 100 µM in each case. Also, the TGI in [4], in [6] and in test [7] was over 100 µM each time.
In the case of `CC(=O)OC(/C=C1/C=CC(=O)O1)COC(=O)c1ccccc1` (stereo not drawn), the TGI in test [1], in test [2], in [8], in test [3], in test [10] and in [9] was over 31.2 µM throughout. Also, the TGI in test [4], in test [6] and in test [7] was over 31.2 µM in each case.
